From patent US8901118B2, “Compounds and methods for kinase modulation, and indications therefor” (Plexxikon Inc., priority 2010, dated 2014)

What was measured:
[1] = target: T1, BCR-NTRK2 BaF3 cells (Homo sapiens, UniProt Q16620); test: BaF3 BCR-NTRK2 cell proliferation assay (ATPlite); assay type: cell-based; details: read-out: Inhibition of Cell Proliferation IC50, BCR/BaF3 TrkB
T1 construct: fused on or other part: P11274 (Breakpoint cluster region protein)
In short: (§1)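 ATP-based luminescence (ATPlite), read after 10 min at room temperature, served as a proxy for cell number, and IC50 was fitted against compound concentration. Before that, cells were treated for 3 days with an 8-point 1:3 dilution series starting at 10 μM. BaF3 cells were plated at 10,000/well without IL-3, and MV-4-11 cells at 25,000/well.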

[2] = target: T2, BCR-NTRK1 BaF3 cells (Homo sapiens, UniProt P04629); test: BaF3 BCR-NTRK1 cell proliferation assay (ATPlite); assay type: cell-based; details: read-out: Inhibition of Cell Proliferation IC50, BCR/BaF3 TrkA
T2 construct: fused on or other part: P11274 (Breakpoint cluster region protein)
In short: as §1

[3] = target: CYP2D6 (Homo sapiens, UniProt P10635); test: CYP2D6 inhibition (fluorescent substrate AMMC); assay type: in vitro ADME; details: read-out: Cyp IC50 2D6
In short: (§2)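 Inhibition is measured as the drop in fluorescent metabolite formation across a 10-point compound titration with NADPH regeneration at 37 °C. Incubation lasts 15 min for CYP1A2, 45 min for CYP2C9 and 30 min for CYP2C19 and CYP2D6.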

[4] = target: CYP2C19 (Homo sapiens, UniProt P33261); test: CYP2C19 inhibition (fluorescent substrate CEC); assay type: in vitro ADME; details: read-out: Cyp IC50 2C19
In short: as §2

[5] = system: SKNSH cells; test: SKNSH (human neuroblastoma) cell proliferation assay (ATPlite); assay type: cell-based; details: SK-N-SH, read-out: Inhibition of Cell Proliferation IC50, SKNSH
In short: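 SK-N-SH human neuroblastoma cells grown in RPMI with 10% FBS were pelleted, resuspended at 2×10^4 cells/mL, and plated at 3,000 cells per well (150 μL) in 96-well plates, then kept overnight at 37° C. in 5% CO2. Compounds in an 8-point 1:3 DMSO series were added as 0.75 μL aliquots.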

T2 sequence (P04629 510-781): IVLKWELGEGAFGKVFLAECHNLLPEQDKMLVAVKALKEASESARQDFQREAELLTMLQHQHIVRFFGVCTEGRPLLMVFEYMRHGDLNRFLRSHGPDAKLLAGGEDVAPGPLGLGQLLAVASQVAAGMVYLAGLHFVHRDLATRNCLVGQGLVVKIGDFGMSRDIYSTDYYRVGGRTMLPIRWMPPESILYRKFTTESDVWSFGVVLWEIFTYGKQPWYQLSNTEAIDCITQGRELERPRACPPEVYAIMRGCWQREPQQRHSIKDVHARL
Sequence of CYP2C19 (P33261 whole entry): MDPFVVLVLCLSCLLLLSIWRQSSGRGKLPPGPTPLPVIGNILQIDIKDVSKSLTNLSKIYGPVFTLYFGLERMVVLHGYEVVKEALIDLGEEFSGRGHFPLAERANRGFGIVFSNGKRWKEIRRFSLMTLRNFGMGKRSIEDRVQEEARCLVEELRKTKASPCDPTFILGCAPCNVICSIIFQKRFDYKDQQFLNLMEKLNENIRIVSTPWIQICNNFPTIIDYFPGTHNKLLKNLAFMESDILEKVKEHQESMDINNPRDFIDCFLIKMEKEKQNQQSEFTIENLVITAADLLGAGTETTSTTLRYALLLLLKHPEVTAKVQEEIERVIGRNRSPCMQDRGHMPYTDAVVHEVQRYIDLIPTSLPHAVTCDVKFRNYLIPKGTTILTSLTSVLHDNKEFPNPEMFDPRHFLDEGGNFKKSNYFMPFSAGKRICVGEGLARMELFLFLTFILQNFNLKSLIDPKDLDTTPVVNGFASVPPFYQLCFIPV
Sequence of CYP2D6 (P10635 whole entry): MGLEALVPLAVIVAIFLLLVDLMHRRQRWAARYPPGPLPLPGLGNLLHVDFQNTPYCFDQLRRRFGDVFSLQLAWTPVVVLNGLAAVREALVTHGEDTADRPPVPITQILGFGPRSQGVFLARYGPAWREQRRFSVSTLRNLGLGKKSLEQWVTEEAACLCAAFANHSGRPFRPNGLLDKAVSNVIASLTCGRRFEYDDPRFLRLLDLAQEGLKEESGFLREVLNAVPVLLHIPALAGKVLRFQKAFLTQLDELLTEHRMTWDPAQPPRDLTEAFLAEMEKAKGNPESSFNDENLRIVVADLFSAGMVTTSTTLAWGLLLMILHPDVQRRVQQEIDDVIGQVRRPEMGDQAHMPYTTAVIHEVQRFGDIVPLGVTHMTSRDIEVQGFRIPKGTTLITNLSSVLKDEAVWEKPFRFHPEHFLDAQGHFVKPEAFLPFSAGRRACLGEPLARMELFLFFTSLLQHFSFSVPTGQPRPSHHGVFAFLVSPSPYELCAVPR
T1 sequence (Q16620 538-807): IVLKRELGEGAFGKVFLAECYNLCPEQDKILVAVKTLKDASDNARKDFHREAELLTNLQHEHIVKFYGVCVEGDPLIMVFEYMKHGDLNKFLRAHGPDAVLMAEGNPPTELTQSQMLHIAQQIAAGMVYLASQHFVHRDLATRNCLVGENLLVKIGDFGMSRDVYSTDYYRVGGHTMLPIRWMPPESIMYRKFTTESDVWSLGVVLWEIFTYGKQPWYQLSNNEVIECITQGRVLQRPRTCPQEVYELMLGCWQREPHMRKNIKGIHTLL

IC50 [1]	IC50 [2]	IC50 [3]	IC50 [4]	IC50 [5]	SMILES
> 10 µM	> 10 µM	> 10 µM	> 10 µM		Clc1cnc2[nH]cc(Cc3cnc(NC4CCCCC4)nc3)c2c1 [Compound P-3001, [5-(5-chloro-1H-pyrrolo[2,3-b]pyridin-3-ylmethyl)-pyrimidin-2-yl]-cyclohexyl-amine]
< 10 µM	< 10 µM	> 10 µM	5 to 10 µM		FC1(F)CCC(Nc2ncc(Cc3c[nH]c4ncc(Cl)cc34)cn2)CC1 [Compound P-3004]
> 10 µM	> 10 µM				Clc1cnc2[nH]cc(Cc3cnc(NC4CC4)nc3)c2c1 [Compound P-3005, [5-(5-Chloro-1H-pyrrolo[2,3-b]pyridin-3-ylmethyl)-pyrimidin-2-yl]-cyclopropyl-amine]
> 10 µM	< 20 µM	> 10 µM	> 10 µM		Clc1cnc2[nH]cc(Cc3cnc(NC4CCCCCC4)nc3)c2c1 [Compound P-3006, [5-(5-Chloro-1H-pyrrolo[2,3-b]pyridin-3-ylmethyl)-pyrimidin-2-yl]-cycloheptyl-amine]
> 10 µM	> 10 µM				COc1ccccc1Nc1ncc(Cc2c[nH]c3ncc(Cl)cc23)cn1 [Compound P-3016, [5-(5-Chloro-1H-pyrrolo[2,3-b]pyridin-3-ylmethyl)-pyrimidin-2-yl]-(2-methoxy-phenyl)-amine]
> 10 µM	> 10 µM				Fc1cccc(Nc2ncc(Cc3c[nH]c4ncc(Cl)cc34)cn2)c1 [Compound P-3017, [5-(5-Chloro-1H-pyrrolo[2,3-b]pyridin-3-ylmethyl)-pyrimidin-2-yl]-(3-fluoro-phenyl)-amine]
< 0.1 µM	< 1 µM	> 10 µM	> 10 µM		Cc1cnc2[nH]cc(Cc3cnc(Nc4ccc(C(F)(F)F)nc4)nc3)c2c1 [Compound P-3018, [5-(5-Methyl-1H-pyrrolo[2,3-b]pyridin-3-ylmethyl)-pyrimidin-2-yl]-(6-trifluoromethyl-pyridin-3-yl)-amine]
< 0.1 µM	< 0.1 µM			< 1 µM	COc1ccc(Nc2ncc(Cc3c[nH]c4ncc(C)cc34)cn2)cn1 [Compound P-3020, (6-Methoxy-pyridin-3-yl)-[5-(5-methyl-1H-pyrrolo[2,3-b]pyridin-3-ylmethyl)-pyrimidin-2-yl]-amine]
< 1 µM	< 1 µM				COc1cc(Nc2ncc(Cc3c[nH]c4ncc(C)cc34)cn2)ccc1F [Compound P-3022, (4-Fluoro-3-methoxy-phenyl)-[5-(5-methyl-1H-pyrrolo[2,3-b]pyridin-3-ylmethyl)-pyrimidin-2-yl]-amine]
< 1 µM	< 1 µM				COc1ccc(Nc2ncc(Cc3c[nH]c4ncc(C)cc34)cn2)cc1F [Compound P-3023, (3-Fluoro-4-methoxy-phenyl)-[5-(5-methyl-1H-pyrrolo[2,3-b]pyridin-3-ylmethyl)-pyrimidin-2-yl]-amine]
	< 0.1 µM	> 10 µM	< 5 µM		CCc1ccc(Nc2ccc(Cc3c[nH]c4ncc(C)cc34)c(F)n2)cn1 [Compound P-3048, (6-Ethyl-pyridin-3-yl)-[6-fluoro-5-(5-methyl-1H-pyrrolo[2,3-b]pyridin-3-ylmethyl)-pyridin-2-yl]-amine]
	< 0.01 µM	> 10 µM	> 10 µM		CCc1ccc(Nc2ccc(C(=O)c3c[nH]c4ncc(C)cc34)c(F)n2)cn1 [Compound P-3049, [6-(6-Ethyl-pyridin-3-ylamino)-2-fluoro-pyridin-3-yl]-(5-methyl-1H-pyrrolo[2,3-b]pyridin-3-yl)-methanone]
	< 0.1 µM	> 10 µM	> 10 µM		Cc1cnc2[nH]cc(Cc3ccc(Nc4ccc(C5CC5)nc4)nc3F)c2c1 [Compound P-3050, (6-Cyclopropyl-pyridin-3-yl)-[6-fluoro-5-(5-methyl-1H-pyrrolo[2,3-b]pyridin-3-ylmethyl)-pyridin-2-yl]-amine]
	< 0.1 µM	> 10 µM	> 10 µM		Cc1cnc2[nH]cc(C(=O)c3ccc(Nc4ccc(C5CC5)nc4)nc3F)c2c1 [Compound P-3051, [6-(6-Cyclopropyl-pyridin-3-ylamino)-2-fluoro-pyridin-3-yl]-(5-methyl-1H-pyrrolo[2,3-b]pyridin-3-yl)-methanone]
	< 0.1 µM	> 10 µM	5 to 10 µM		O=C(c1ccc(Nc2ccc(C3CC3)nc2)nc1F)c1c[nH]c2ncccc12 [Compound P-3052, [6-(6-Cyclopropyl-pyridin-3-ylamino)-2-fluoro-pyridin-3-yl]-(1H-pyrrolo[2,3-b]pyridin-3-yl)-methanone]
	< 0.1 µM	> 10 µM	> 10 µM		Fc1nc(Nc2ccc(C3CC3)nc2)ccc1Cc1c[nH]c2ncccc12 [Compound P-3053, (6-Cyclopropyl-pyridin-3-yl)-[6-fluoro-5-(1H-pyrrolo[2,3-b]pyridin-3-ylmethyl)-pyridin-2-yl]-amine]
< 0.01 µM	< 0.1 µM				CCOc1ccc(Nc2ccc(Cc3c[nH]c4ncnc(C5CC5)c34)c(F)n2)cn1 [Compound P-4026, [5-(4-Cyclopropyl-7H-pyrrolo[2,3-d]pyrimidin-5-ylmethyl)-6-fluoro-pyridin-2-yl]-(6-ethoxy-pyridin-3-yl)-amine]
< 0.01 µM	< 0.1 µM				CCOc1ccc(Nc2ccc(C(=O)c3c[nH]c4ncnc(C5CC5)c34)c(F)n2)cn1 [Compound P-4027, (4-Cyclopropyl-7H-pyrrolo[2,3-d]pyrimidin-5-yl)-[6-(6-ethoxy-pyridin-3-ylamino)-2-fluoro-pyridin-3-yl]-methanone]
< 0.01 µM	< 0.01 µM	> 10 µM	5 to 10 µM		CCc1ccc(Nc2ccc(Cc3c[nH]c4ncnc(C5CC5)c34)c(F)n2)cn1 [Compound P-4028, [5-(4-Cyclopropyl-7H-pyrrolo[2,3-d]pyrimidin-5-ylmethyl)-6-fluoro-pyridin-2-yl]-(6-ethyl-pyridin-3-yl)-amine]
< 0.01 µM	< 0.01 µM	> 10 µM	> 10 µM		CCc1ccc(Nc2ccc(C(=O)c3c[nH]c4ncnc(C5CC5)c34)c(F)n2)cn1 [Compound P-4029, (4-Cyclopropyl-7H-pyrrolo[2,3-d]pyrimidin-5-yl)-[6-(6-ethyl-pyridin-3-ylamino)-2-fluoro-pyridin-3-yl]-methanone]
< 0.1 µM	< 1 µM	> 10 µM	5 to 10 µM		Cc1ccc(Nc2ccc(Cc3c[nH]c4ncnc(C5CC5)c34)c(F)n2)cn1 [Compound P-4030, [5-(4-Cyclopropyl-7H-pyrrolo[2,3-d]pyrimidin-5-ylmethyl)-6-fluoro-pyridin-2-yl]-(6-methyl-pyridin-3-yl)-amine]
< 0.01 µM	< 0.1 µM	< 5 µM	> 10 µM		Cc1ccc(Nc2ccc(C(=O)c3c[nH]c4ncnc(C5CC5)c34)c(F)n2)cn1 [Compound P-4031, (4-Cyclopropyl-7H-pyrrolo[2,3-d]pyrimidin-5-yl)-[2-fluoro-6-(6-methyl-pyridin-3-ylamino)-pyridin-3-yl]-methanone]
< 0.1 µM	< 0.1 µM				CCOc1ccc(Nc2ccc(C(=O)c3c[nH]c4ncnc(C)c34)c(F)n2)cn1 [Compound P-4032, [6-(6-Ethoxy-pyridin-3-ylamino)-2-fluoro-pyridin-3-yl]-(4-methyl-7H-pyrrolo[2,3-d]pyrimidin-5-yl)-methanone]
< 0.1 µM	< 1 µM	> 10 µM	5 to 10 µM		CCn1cc(Nc2ccc(Cc3c[nH]c4ncnc(C5CC5)c34)c(F)n2)cn1 [Compound P-4036, [5-(4-Cyclopropyl-7H-pyrrolo[2,3-d]pyrimidin-5-ylmethyl)-6-fluoro-pyridin-2-yl]-(1-ethyl-1H-pyrazol-4-yl)-amine]
	< 0.1 µM	> 10 µM	> 10 µM		CCn1cc(Nc2ccc(C(=O)c3c[nH]c4ncnc(C5CC5)c34)c(F)n2)cn1 [Compound P-4037, (4-Cyclopropyl-7H-pyrrolo[2,3-d]pyrimidin-5-yl)-[6-(1-ethyl-1H-pyrazol-4-ylamino)-2-fluoro-pyridin-3-yl]-methanone]
< 1 µM	< 1 µM				Cc1cncc(Nc2ccc(Cc3c[nH]c4ncnc(C5CC5)c34)c(F)n2)c1 [Compound P-4038, [5-(4-Cyclopropyl-7H-pyrrolo[2,3-d]pyrimidin-5-ylmethyl)-6-fluoro-pyridin-2-yl]-(5-methyl-pyridin-3-yl)-amine]
< 0.1 µM	< 0.1 µM				Cc1cncc(Nc2ccc(C(=O)c3c[nH]c4ncnc(C5CC5)c34)c(F)n2)c1 [Compound P-4039, (4-Cyclopropyl-7H-pyrrolo[2,3-d]pyrimidin-5-yl)-[2-fluoro-6-(5-methyl-pyridin-3-ylamino)-pyridin-3-yl]-methanone]
